Earlier results on two compounds are cited in patent publication US5756661A, “Pentaclethra macroloba derived substances having insecticide, agglutination and aminopeptidase inhibition activity” (Pioneer Hi-Bred International, Inc., priority 1996, dated 1998).

The test system of this series is aminopeptidases. The conditions noted are these: references 13, 1.

In the case of `CC(C)C[C@H](NC(=O)[C@@H](O)[C@H](N)Cc1ccccc1)C(=O)O` [bestatin], the “inhibition of the activity of several aminopeptidases” value is on record as “completely inhibit”. `CC(C)C[C@@H](N)[C@H](O)C(=O)N[C@H](C(=O)N[C@H](C(=O)N[C@@H](CC(=O)O)C(=O)O)C(C)C)C(C)C` [amastatin]: the “inhibition of the activity of several aminopeptidases” value was “completely inhibit”.
